According to publication PMC11212260, “Next-generation neuropeptide Y receptor small-molecule agonists inhibit mosquito-biting behavior” (Parasites & Vectors, 2024):
Values joined by “and” are separate entries in the source; they are usually repeats but may differ in a detail not shown here. Equal entries are not always repeated.

Experiments:
[1] = test system: Aedes aegypti (Orlando strain) females; assay: Biting assay (mouse-in-cage); type: in vivo; parameters: key to Difference between medians: Actual (vs. saline) / Difference between medians: Hodges-Lehmann (vs. saline): differences in percent biting (blood-fed/total females, %); conditions: for Percentage of females that freshly blood-fed on an anesthetized mouse: fed 1 μM 48 h prior, 15 min exposure, individual replicates; for effect on biting / blood-feeding from a live host (in words): fed at a dose of 1 μM
Procedure: Groups of 60–150 females were placed in bucket cages with a diameter of 21.6 cm and height of 16.5 cm (VWR) and fasted with access to water for 24 h prior to feeding. Meals were delivered to females via Glytube membrane feeders as described previously. Meals consisted of 1.5 ml sheep blood (HemoStat Laboratories), saline (400 mM NaHCO3 + dih2O), or saline and test compound. Lyophilized compounds were stored at room temperature until use. High-concentration stocks (30 mM in 100% dimethyl sulfoxide [DMSO]) (Sigma-Aldrich) were stored at −20 °C and diluted in saline immediately prior to feeding. Once prepared, meals and glycerol heating elements were warmed in a 42 °C water bath for 15 min to provide warmth to attract mosquitos to feed. […] Females were allowed 15–20 min to feed to repletion. Abdominal engorgement was scored by eye and confirmed by weighing females to ensure full feeding (Data S1). […] Females were returned to their original cage with a diH2O wick for 48 h prior to behavioral testing. The lethality of each compound was measured by counting the number of dead females in each cage 24 h post-meal.
This assay was modified from. Females were fed and scored as described above. Forty-eight hours post-meal, females were anesthetized in a 4 °C cold room and aspirated into a petri dish (Thermo Fisher Biosciences) with a randomly assigned color powder (Slice of the Moon; Chameleon Colors) to mark their treatment group. Females were then individually removed from the color powder, placed inside a cage measuring 91 cm × 61 cm × 61 cm (BugDorm), and allowed 2–4 h to recover. Each experiment consisted of a cage with 12–20 females in each treatment group including environmental (non-fed and blood-fed) and vehicle (saline-fed) control groups. The experiment began once an anesthetized mouse was introduced to the center of the cage, and females were allowed 15 min to blood-feed. The mouse was then removed, and the cage was placed at 4 °C to anesthetize females for collection. Females were aspirated into a large glass petri dish (Pyrex) and scored under a dissection microscope (Nikon SMZ1500) for powder color and blood-feeding status. Females were scored as blood-fed if fresh blood was present in the abdomen. Percent biting was calculated as females freshly blood-fed/total females in each respective treatment group.

[2] = test system: Aedes aegypti (Orlando strain) females; assay: Glytube feeding: females feeding to repletion and weight per female (meal palatability); type: in vivo; conditions: Supplemental Figure 1 Panel A; compounds of Fig 3; individual replicate values
Procedure: Groups of 60–150 females were placed in bucket cages with a diameter of 21.6 cm and height of 16.5 cm (VWR) and fasted with access to water for 24 h prior to feeding. Meals were delivered to females via Glytube membrane feeders as described previously. Meals consisted of 1.5 ml sheep blood (HemoStat Laboratories), saline (400 mM NaHCO3 + dih2O), or saline and test compound. Lyophilized compounds were stored at room temperature until use. High-concentration stocks (30 mM in 100% dimethyl sulfoxide [DMSO]) (Sigma-Aldrich) were stored at −20 °C and diluted in saline immediately prior to feeding. Once prepared, meals and glycerol heating elements were warmed in a 42 °C water bath for 15 min to provide warmth to attract mosquitos to feed. ATP (1 mM final concentration) and test compounds (1 μM final concentration) were added prior to placing the meal on top of the mesh on the cage containing female mosquitos. Females were allowed 15–20 min to feed to repletion. Abdominal engorgement was scored by eye and confirmed by weighing females to ensure full feeding (Data S1). […] Females were returned to their original cage with a diH2O wick for 48 h prior to behavioral testing. The lethality of each compound was measured by counting the number of dead females in each cage 24 h post-meal.
Supplementary file 13071_2024_6347_MOESM1_ESM.png: Supplementary Material 1: Figure 1. […] (A) Percent of females feeding to repletion and (B) weight per female after feeding on the indicated meal used for testing in Miniport olfactometer experiments in Figure 3B. (C) Percent of females feeding to repletion and (D) weight per female after feeding on the indicated meal used for testing in live host assays in Figure 4. Data are shown as mean with standard deviation. n = 2–22 replicate cages, 60–150 females/cage. Females were weighed in groups of five to ensure reliable readings. Kruskal–Wallis with Dunn’s multiple comparisons to saline-fed group, ns P > 0.01, * P < 0.01, *** P < 0.0001. (PNG 321 KB)

Ae. aegypti NPYLR7 = Ae. aegypti NPYLR7 (Aedes aegypti, UniProt U5N1H5); parameters: method as in PMID 30735632; conditions: previous work; read-out: EC50 in activating NPYLR7 in vitro; cited from earlier work
[3] = test system: Aedes aegypti (Orlando strain) females; parameters: method as in PMID 30735632; conditions: previous work; cited from earlier work

Chain of Ae. aegypti NPYLR7 (U5N1H5 entry or part of it): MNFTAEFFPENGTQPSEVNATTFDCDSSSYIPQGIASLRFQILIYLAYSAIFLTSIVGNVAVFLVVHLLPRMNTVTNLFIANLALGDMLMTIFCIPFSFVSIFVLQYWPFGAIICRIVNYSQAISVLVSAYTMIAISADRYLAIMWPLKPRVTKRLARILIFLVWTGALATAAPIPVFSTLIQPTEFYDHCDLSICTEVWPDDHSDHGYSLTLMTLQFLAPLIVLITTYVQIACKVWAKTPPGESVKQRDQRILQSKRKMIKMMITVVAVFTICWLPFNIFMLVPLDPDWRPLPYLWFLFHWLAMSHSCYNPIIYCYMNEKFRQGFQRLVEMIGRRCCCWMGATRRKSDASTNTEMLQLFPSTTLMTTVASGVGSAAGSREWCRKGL

With `CNc1nc(NC(=N)N)nc2cc(OCc3ccccc3)c(OC)cc12` [TDI-014184] the “Difference between medians: Actual (vs. saline)” value ([1]; fed 1 μM) was -27.4, the “Difference between medians: Hodges-Lehmann (vs. saline)” value ([1]; fed 1 μM) was -24 and the “Median (percent freshly blood-fed)” value ([1]; fed 1 μM) was 47.00, n=11%. For the same molecule, the “Significantly different (P < 0.05)? vs. saline” value ([1]; fed 1 μM) was “Yes”, the “Percentage of females that freshly blood-fed on an anesthetized mouse” value ([1]; listed as TDI-04184) was 65% and 81% and 47% and 10% and 44% and 86% and 33% and 56% and 35% and the “effect on biting / blood-feeding from a live host (in words)” value [1] was “reduced biting behavior”. For the same molecule, the “% feeding (females feeding to repletion)” value [2] was 76.92%.
With `Cc1nc(NC(=N)N)nc2cc(N3CCc4ccccc4C3)ccc12` [TDI-014186] the “Difference between medians: Actual (vs. saline)” value ([1]; fed 1 μM) was -18.25, the “Difference between medians: Hodges-Lehmann (vs. saline)” value ([1]; fed 1 μM) was -17 and the “Median (percent freshly blood-fed)” value ([1]; fed 1 μM) was 54.25, n=9%. The “Significantly different (P < 0.05)? vs. saline” value ([1]; fed 1 μM) was “Yes”, the “Percentage of females that freshly blood-fed on an anesthetized mouse” value ([1]; listed as TDI-04186) was 31% and 62% and 70% and 67% and 36% and 53% and 65% and the “effect on biting / blood-feeding from a live host (in words)” value [1] was “effectively reduced biting”. For the same molecule, the “% feeding (females feeding to repletion)” value [2] was 56.22%.
In the case of `COc1ccc2c(C)nc(NC(=N)N)nc2c1` [TDI-012631, reference compound], the “Difference between medians: Actual (vs. saline)” value ([1]; fed 100 μM) is reported as -26, the “Difference between medians: Hodges-Lehmann (vs. saline)” value ([1]; fed 100 μM) is reported as -24.68 and the “Median (percent freshly blood-fed)” value ([1]; fed 100 μM) is reported as 53.00, n=17%. The “Significantly different (P < 0.05)? vs. saline” value ([1]; fed 100 μM) was “Yes”, the “effect on blood-feeding from a live host (in words)” value ([1]; fed at a dose of 100 μM) was “inhibited blood-feeding” and the EC50 (Ae. aegypti NPYLR7) was 19.6 µM. For the same molecule, the “fed dose at which behaviorally active” value [3] was > 30 µM.
